Like-named read-outs stand apart in the source and are kept apart here.
Columns and labels:
[1] = log P by HPLC on a reversed-phase column (C 18), EEC Directive 79/831 Annex V.A8; assay type: physicochemical; conditions: for LOGP_NEUTRAL: pH 7.8, 0.001 molar aqueous ammonium hydrogencarbonate/acetonitrile; for chromatographic logP: reversed-phase HPLC column (C 18)
Method: The log P values are measured according to EEC Directive 79/831 Annex V.A8 by HPLC (high-performance liquid chromatography) on a reversed-phase column (C 18). Temperature: 55° C. The LC-MS determination in the acidic range is effected at pH 2.7 using 0.1% aqueous formic acid and acetonitrile (contains 0.1% formic acid) as eluents, linear gradient from 10% acetonitrile to 95% acetonitrile. Called log P (HCOOH) in the table. LC-MS determination in the neutral range is effected at pH 7.8 with 0.001 molar aqueous ammonium hydrogencarbonate solution and acetonitrile as eluents; linear gradient from 10% acetonitrile to 95% acetonitrile. Called log P (neutral) in the table. Calibration is effected with unbranched alkan-2-ones (having 3 to 16 carbon atoms) with known log P values (log P values determined on the basis of the retention times by linear interpolation between two successive alkanone s).

[2] = system: Myzus persicae; assay: Myzus persicae spray test (MYZUPE), Chinese cabbage leaf discs; assay type: in vivo; conditions: after 6 days
Method: Myzus persicae—Spray Test (MYZUPE)
Solvent: 78 parts by weight of acetone • • 1.5 parts by weight of dimethylformamide
Emulsifier: alkylaryl poly glycol ether
(§1) To produce an appropriate active ingredient formulation, 1 part by weight of active ingredient is dissolved using the stated parts by weight of solvent and made up with water containing an emulsifier concentration of 1000 ppm until the desired concentration is attained. To produce further test concentrations, the preparation is diluted with emulsifier-containing water.
Discs of Chinese cabbage leaves (Brassica pekinensis) infested by all stages of the green peach aphid (Myzus persicae) are sprayed with an active ingredient formulation of the desired concentration.
After 6 days, the efficacy in % is determined. 100% means that all the aphids have been killed; 0% means that none of the aphids have been killed.

[3] = system: Phaedon cochleariae; assay: Phaedon cochleariae spray test (PHAECO); assay type: in vivo; conditions: larvae, after 7 days
Method: Phaedon cochleariae—Spray Test (PHAECO)
(§2) Solvent: 78.0 parts by weight of acetone • • 1.5 parts by weight of dimethylformamide
(§3) Emulsifier: alkylaryl polyglycol ether
as §1
Discs of Chinese cabbage leaves (Brassica pekinensis) are sprayed with an active ingredient formulation of the desired concentration and, after drying, populated with larvae of the mustard beetle (Phaedon cochleariae).
After 7 days, the efficacy in % is determined. 100% means that all the beetle larvae have been killed; 0% means that no beetle larvae have been killed.

[4] = system: Tetranychus urticae; assay: Tetranychus urticae spray test, OP-resistant (TETRUR); assay type: in vivo; conditions: application rate 500 g/ha; bean leaf discs; after 6 days
Method: Tetranychus urticae—Spray Test, OP-Resistant (TETRUR)
as §2, §3, §1
Discs of bean leaves (Phaseolus vulgaris) infested by all stages of the greenhouse red spider mite (Tetranychus urticae) are sprayed with an active ingredient formulation of the desired concentration.
After 6 days, the efficacy in % is determined. 100% means that all the spider mites have been killed; 0% means that none of the spider mites have been killed.

[5] = system: Spodoptera frugiperda; assay: Spodoptera frugiperda spray test (SPODFR); assay type: in vivo; conditions: application rate 500 g/ha; maize leaf discs; after 7 days
Method: Spodoptera frugiperda—Spray Test (SPODFR)
as §2, §3, §1
Leaf discs of maize (Zea mays) are sprayed with an active ingredient formulation of the desired concentration and, after drying, populated with caterpillars of the armyworm (Spodoptera frugiperda).
After 7 days, the efficacy in % is determined. 100% means that all the caterpillars have been killed; 0% means that no caterpillars have been killed.

[6] = acidic range, pH 2.7, 0.1% aqueous formic acid/acetonitrile, 55° C.

Row | Structure (SMILES) | LOGP_HCOOH [1, 6] | LOGP_NEUTRAL ([1]; neutral range, 55° C.) | efficacy ([2]; application rate 500 g/ha) [%] | efficacy ([3]; application rate 500 g/ha) [%] | efficacy [4] [%] | efficacy ([3]; application rate 100 g/ha) [%] | chromatographic logP ([1]; acidic range, pH 2.7, 0.1% aqueous formic acid/acetonitrile, 55° C., read-out: LOGP_HCOOH) | chromatographic logP ([1]; neutral range, pH 7.8, read-out: log P (neutral)) | efficacy [5] [%] | efficacy ([2]; application rate 20 g/ha) [%]
1 | CSc1cc(F)ccc1-c1nc2cc(C(F)(F)F)ncc2n1C [Example I-4] | 2.70 | 2.65 | 90 | 100 | – | – | – | – | – | –
2 | Cn1c(-c2ccc(Cl)cc2[S+](C)[O-])nc2cc(C(F)(F)F)ncc21 (stereo not shown) [Example I-10] | 2.15 | 2.08 | 100 | 100 | – | – | – | – | – | –
3 | Cn1c(-c2ccc(F)cc2[S+](C)[O-])nc2cc(C(F)(F)F)ncc21 (stereo not shown) [Example I-12] | 1.88 | 1.83 | 90 | 100 | – | – | – | – | – | –
4 | CC[S+]([O-])c1ccc(Cl)cc1-c1nc2cc(C(F)(F)F)ncc2n1C (stereo not shown) [Example I-13] | 2.44 | 2.34 | 100 | 100 | 90 | – | – | – | – | –
5 | CCSc1ccccc1-c1nc2cc(C(F)(F)F)ncc2n1C [Example I-17] | 2.94 | 2.87 | 90 | – | – | 83 | – | – | – | –
6 | CCSCCSc1cc(C(F)(F)F)cnc1-c1nc2cc(C(F)(F)F)ncc2n1C [Example I-23] | 4.02 | 3.96 | 100 | – | – | – | – | – | – | –
7 | CCSc1cccnc1-c1nc2cc(C(F)(F)F)ncc2n1C [Example I-24] | 2.39 | 2.32 | 100 | 100 | – | – | – | – | – | –
8 | Cn1c(-c2ncc(C(F)(F)F)cc2[S+](C)[O-])nc2cc(C(F)(F)F)ncc21 (stereo not shown) [Example I-26, 3-methyl-2-[3-(methylsulphinyl)-5-(trifluoromethyl)pyridin-2-yl]-6-(trifluoro-methyl)-3H-imidazo[4,5-c]pyridine] | – | 2.76 | – | 100 | – | – | 2.81 | 2.76 | 100 | –
9 | CCSc1cc(C(F)(F)F)cnc1-c1nc2nc(C(F)(F)F)ncc2n1C [Example I-28] | 3.29 | 3.22 | – | 100 | 90 | – | – | – | – | –
10 | CC[S+]([O-])c1cc(C(F)(F)F)cnc1-c1nc2cc(C(F)(F)F)ncc2n1C (stereo not shown) [Example I-37] | 3.17 | 3.10 | – | 100 | – | – | – | – | 100 | –
11 | CCS(=O)(=O)c1ccc(Cl)cc1-c1nc2cc(C(F)(F)F)ncc2n1C [Example I-38] | 2.68 | 2.63 | 90 | 100 | – | – | – | – | – | –
12 | CCC[S+]([O-])c1cc(C(F)(F)F)cnc1-c1nc2cc(C(F)(F)F)ncc2n1C (stereo not shown) [Example I-39] | 3.52 | 3.45 | – | 100 | – | – | – | – | 100 | 90
13 | CC(C)Sc1cc(C(F)(F)F)cnc1-c1nc2cc(C(F)(F)F)ncc2n1C [Example I-41] | 3.80 | 3.73 | – | 100 | – | – | – | – | – | –
14 | CCS(=O)(=O)c1cc(Cl)ccc1-c1nc2cc(C(F)(F)F)ncc2n1C [Example I-43] | 2.69 | 2.61 | 100 | 100 | – | – | – | – | – | –
15 | CCS(=O)(=O)c1ccc(OC)nc1-c1nc2cc(C(F)(F)F)ncc2n1C [Example I-45] | 2.53 | – | 90 | 100 | – | – | – | – | – | –
16 | CCSc1cccnc1-c1nc2cc(C(F)(F)C(F)(F)F)ncc2n1C [Example I-46] | 2.98 | 2.92 | 90 | 100 | – | – | – | – | 100 | –
17 | CCSc1cc(C(F)(F)F)cnc1-c1nc2cc(C(F)(F)C(F)(F)F)ncc2n1C [Example I-47] | 4.10 | 4.02 | – | 100 | – | – | – | – | 100 | –
18 | CCS(=O)(=O)c1ccc(NC(C)=O)nc1-c1nc2cc(C(F)(F)F)ncc2n1C [Example I-49] | 2.05 | 1.99 | 90 | 100 | – | – | – | – | – | –
19 | CCSc1ccc(NC(C)=O)nc1-c1nc2cc(C(F)(F)F)ncc2n1C [Example I-50] | 2.39 | 2.27 | 90 | 100 | – | – | – | – | – | –
20 | CC[S+]([O-])c1c(C(F)(F)F)ccnc1-c1nc2cc(C(F)(F)F)ncc2n1C (stereo not shown) [Example I-51] | 2.48 | – | 90 | 100 | – | – | – | – | – | –
21 | CCS(=O)(=O)c1cc(C(F)(F)F)cnc1-c1nc2cc(Cl)ncc2n1C [Example I-52] | 2.61 | 2.51 | 100 | 100 | – | – | – | – | – | –
22 | CCSc1ccc(OC)nc1-c1nc2cc(C(F)(F)F)ncc2n1C [Example I-53] | 3.12 | – | – | 100 | 90 | – | – | – | – | –
23 | Cn1c(-c2ncc(C(F)(F)F)cc2S(=O)(=O)CCF)nc2cc(C(F)(F)F)ncc21 [Example I-54] | 3.16 | 3.07 | – | 100 | – | – | – | – | 100 | –
24 | CCSc1cc(C(F)(F)F)cnc1-c1nc2cc(Cl)ncc2n1C [Example I-55] | 3.12 | 3.01 | – | 100 | – | – | – | – | – | –
25 | CCS(=O)(=O)c1cc(C(N)=O)cnc1-c1nc2cc(C(F)(F)F)ncc2n1C [Example I-56] | 1.61 | 1.56 | 90 | – | – | – | – | – | – | –
26 | CC[S+]([O-])c1cccnc1-c1nc2cc(C(F)(F)C(F)(F)F)ncc2n1C (stereo not shown) [Example I-61] | 2.71 | 2.63 | 90 | 100 | – | – | – | – | 100 | –
27 | CC[S+]([O-])c1cc(C(F)(F)F)cnc1-c1nc2cc(C(F)(F)C(F)(F)F)ncc2n1C (stereo not shown) [Example I-63] | 3.75 | 3.62 | – | 83 | – | – | – | – | 100 | –
28 | COc1ccc(S(C)(=O)=O)c(-c2nc3cc(C(F)(F)F)ncc3n2C)n1 [Example I-73] | 2.25 | 2.20 | – | 100 | – | – | – | – | – | –

Source: patent US11274097B2, “2-(het)aryl-substituted condensed bicyclic heterocycle derivatives as pest control agents” (BAYER CROPSCIENCE AKTIENGESELLSCHAFT, priority 2014, dated 2022)
